Patent publication US8383608B2, “Imidazolidine compounds as androgen receptor modulators” (Dart Therapeutics LLC, priority 2008, dated 2013)
Where two headings read alike, the source gives them in different places.

Assays:
[1] = system: castrated immature young rats; experiment: Adapted model of Hershberger's test; assay type: in vivo, Sprague Dawley rats; conditions: Rattus norvegicus, po, 96 h, ORX control = 0%, SHAM control = 100%, per os daily for 4 days, dose tested 30 mg/kg
[2] = molecular target: T1, human androgen receptor (hAR) (Homo sapiens, UniProt P10275); experiment: Functional response (transactivation) test in HALP2 cells (HeLa stably expressing hAR and ARE-luciferase reporter); assay type: cell-based; conditions: HALP2 cells; for Emax: HeLa, maximal activation by the compound compared with DHT alone (100%), read-out: % effect relative to DHT (100%)
T1 construct: expressed in transfected cells
T1 sequence (P10275 1-920): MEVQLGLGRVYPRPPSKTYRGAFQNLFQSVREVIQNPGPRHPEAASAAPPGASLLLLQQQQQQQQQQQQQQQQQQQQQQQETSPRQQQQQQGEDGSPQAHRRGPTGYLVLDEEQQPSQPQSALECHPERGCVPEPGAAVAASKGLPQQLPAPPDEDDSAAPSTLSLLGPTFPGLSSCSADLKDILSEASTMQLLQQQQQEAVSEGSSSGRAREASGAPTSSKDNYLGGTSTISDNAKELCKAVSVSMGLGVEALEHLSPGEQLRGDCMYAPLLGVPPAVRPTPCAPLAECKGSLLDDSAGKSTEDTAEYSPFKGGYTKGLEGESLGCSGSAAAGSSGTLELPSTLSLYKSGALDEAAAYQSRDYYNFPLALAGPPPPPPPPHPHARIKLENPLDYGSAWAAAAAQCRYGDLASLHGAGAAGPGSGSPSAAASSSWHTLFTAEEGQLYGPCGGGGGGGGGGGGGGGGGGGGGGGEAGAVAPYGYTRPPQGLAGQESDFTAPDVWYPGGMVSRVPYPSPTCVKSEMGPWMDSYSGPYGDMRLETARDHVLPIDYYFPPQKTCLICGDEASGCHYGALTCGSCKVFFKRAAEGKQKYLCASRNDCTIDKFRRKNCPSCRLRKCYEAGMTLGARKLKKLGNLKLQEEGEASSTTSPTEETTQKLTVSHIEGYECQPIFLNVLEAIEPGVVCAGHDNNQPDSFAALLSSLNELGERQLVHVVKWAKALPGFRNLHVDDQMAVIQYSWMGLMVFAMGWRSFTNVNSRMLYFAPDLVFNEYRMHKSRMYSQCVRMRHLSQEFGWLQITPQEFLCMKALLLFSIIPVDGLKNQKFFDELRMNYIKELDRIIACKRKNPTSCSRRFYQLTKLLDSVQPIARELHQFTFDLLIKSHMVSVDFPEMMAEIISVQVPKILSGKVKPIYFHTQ
Source text: This test constitutes a method of identifying pure or partial agonists which mimic the effects of natural hormones, such as DHT (dihydrotestosterone) in the present case or, on the other hand, antagonists which inhibit them.
For this transactivation test, plasmids encoding a reporter gene and the human androgen receptor (hAR) are introduced together by transfection into the HeLa cell line. The reporter plasmid contains luciferase cDNA under the control of the AREs contained in the promoter sequences of the probasin gene (3xpbAREminicoll-luciferase/pGL3-puro). The expression of the reporter gene constitutes an indication of the transcriptional activity of hAR. It also encodes a protein allowing the cells expressing it to resist a treatment with puromycin. The plasmid encoding hAR contains the cDNA of hAR under the control of the Cytomegalovirus (CMV) promoter. It also encodes a protein allowing the cells expressing it to resist a treatment with neomycin. The treatment of cells with increasing amounts of potentially agonistic compounds will increase the expression of the reporter gene. To detect antagonists, on the other hand, increasing doses of test compounds are tested in the presence of […] of DHT. The expression of the reporter gene, which is constant for each dose of DHT, decreases when the concentration of the test compounds increases.
The functional response test is conducted on 96-well plates. The HALP2 cells are seeded (20,000 cells per well) in culture medium (DMEM with phenol red, 1% de Pen-Strep, 1% of non-essential amino acids, 10% of fetal bovine serum, 400 μg/mL Geneticin and 0.150 puromycin) on day 1. After 24 hours incubating at 37° C., 5% CO2, high humidity (day 2) the medium is removed and refreshed with test medium (DMEM without phenol red supplemented, 1% de Pen-Strep, 1% of non-essential amino acids and 5% of desteroidised foetal bovine serum). After another 24 hours incubating at 37° C., 5% CO2, high humidity (day 3), the medium is renewed once more before the phase of stimulation.
The cells are placed in contact with the compounds for 24 hours at 37° C., 5% CO2, high humidity. On day 4 the medium is then removed and the luciferase activity reading reagent is placed in contact with the cells in accordance with the manufacturer's instructions (SteadyLite, Perkin-Elmer). The luminescence produced is detected on an Envision reader (Perkin-Elmer). […]
The determination of the relative agonism/antagonism of a compound is obtained by comparing the maximal activation obtained with said compound and the activation obtained with DHT alone (100%).

[3] = Determination of absolute bioavailability (restricted PK profile, oral and intravenous); assay type: in vivo; conditions: male, Sprague-Dawley, rat, plasma, po, 10 mg/kg, absolute bioavailability (F), male Sprague Dawley rats, oral 10 mg/kg AUC(0-6 h) vs intravenous 3 mg/kg AUC(0-3 h); read-out: Bioavailability
Procedure: To screen rapidly imidazolidines derivatives based on their absolute bioavailabity, restricted pharmacokinetic profile with only fours sampling time points after oral and intravenous route is investigated in Sprague Dawley rats as follows: each test compound is dosed orally (10 mg/kg) and intravenously (3 mg/kg) to groups of 3 male Sprague Dawley rats. Oral doses are administered as solution in EtOH/PEG400/H2O (1/79/20; v/v) by esophageal gavage (2 mg/mL; 5 mL/kg) and intravenous dose is given as solution in DMSO/PEG400/H2O (1/65/34; v/v) as a bolus in the tail vein (3 mg/mL; 1 mL/kg). Before oral dosing, animals are deprived of food (water ad libitum) for at least 16 hours before the start of the study and 6 hours after administration.
Blood is collected at the retro-orbital sinus into polypropylene tubes (Li-heparinate) at +4° C. at the following sampling-times: 0.083, 0.25, 1 and 3 h after intravenous injection and 0.25, 1, 3 and 6 hours after oral dosing. Three (3) animals are sampled per time-point; each animal being sampled four times. After centrifugation at 5000 rpm for 10 min at +4° C., plasma is collected into polypropylene tubes and kept frozen at −20° C. pending assays. Plasma samples are assayed by a LC-MS/MS method with a lower limit of quantification of 1 to 10 ng/mL depending on the compound (volume of plasma: 100 μL).
A LC-MS/MS method for quantification in heparinized plasma was developed for each test compound. Sample preparation consists of a precipitation of plasma proteins with methanol and filtration by centrifugation of supernatant on Captiva deep-well 96 0.2 μm filter plates. Water was added to methanol supernatant phase prior to analysis by liquid chromatography (Pursuit 5 C18 20×2.0 mm VARIAN, 2 μL loop, gradient Water/Methanol (90/10 to 0/100) over 1.7 min) with turboionspray tandem mass spectrometry (API4000) in negative mode using multiple reaction monitoring. The method includes 8 standard and 3 quality control levels with lower limit of quantification corresponding to first standard level.
Exposures are determined using a non compartmental model (WinNonLin 2.1) and the absolute bioavailability (F) is calculated as follows: [AUC(0-6 h) oral*3 mg/kg]/AUC(0-3 h) IV 10 mg/kg] and expressed in percentage.

[4] = levator ani weight, read-out: Anabolic activity %
[5] = ventral prostate weight, read-out: Androgenic activity % (Prostate)

| Compound | response vs control in vivo at 30 mg/kg [1, 4] [%] | response vs control in vivo at 30 mg/kg [1, 5] [%] | Emax [2] [%] | bioavailability [3] [%] | EC50 ([2]; agonism: concentration inducing 50% of the maximum agonistic effect of the tested compound, 24 hours, read-out: EC50) [nM] |
| --- | --- | --- | --- | --- | --- |
| CN1C(=O)N(c2ccc(C#N)c(C(F)(F)F)c2)C(=O)[C@]1(CO)c1ccccc1 [Example 11, (R)-4-[2,5-Dioxo-4-(hydroxymethyl)-3-methyl-4-phenylimidazolidin-1-yl]-2-trifluoromethylbenzonitrile] | 50 to 75 | 0.5 to 25 | 0 to 5 | – | – |
| CN1C(=O)N(c2ccc(C#N)c(C(F)(F)F)c2)C(=O)C1(CO)c1ccc(F)cc1 (centres unmarked) [Example 6, 4-[2,5-Dioxo-4-(4-fluorophenyl)-4-(hydroxymethyl)-3-methylimidazolidin-1-yl]-2-trifluoromethylbenzonitrile] | 25 to 50 | 0.5 to 25 | 21 to 40 | 50 to 90 | 11 to 100 |
